# Patent US8207176B2 (Glaxo Group Limited, priority 2005, dated 2012)
# How the values were obtained:
# [1] = system: influx of neutrophils to the lung in LPS-challenged rats; test: Rat LPS neutrophilia model; assay type: in vivo; settings: intratracheal, LPS aerosol 100 ug/ml 15 min, lavage 4 hours later, in at least one of the range of conditions tested, significant p<0.05, nonsignificant p>0.05
# Method in brief: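 Compound was given intratracheally (200 ul, suspension or dry powder) 15 min–24 hours before a 15 min aerosol of LPS (100 ug/ml). Bronchoalveolar lavage was taken 4 hours after challenge for differential cell counts. Values are % inhibition of neutrophils versus no-compound controls at a given concentration and pretreat time.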
# [2] = biological target: T1, Recombinant human p38α (MKK6-activated) (Homo sapiens, UniProt Q16539); test: Time-resolved fluorescence resonance energy transfer (TR-FRET) kinase assay (standard or low volume); assay type: biochemical; parameters: key: Compounds are considered active in this assay if they demonstrate a pIC50 of greater than 4.6 up to about a pIC50 of greater than 10.0; settings: MKK6-activated p38α 100 pM, GST-ATF2 400 nM, 120 minutes at room temperature; either assay format
# T1 construct: His; made in house
# Description: It is noted that there are two assay formats shown above for the Fluorescence anisotropy kinase binding assay. The only difference between these two assays is the volume used and the plate type. […] The results described herein may have been performed in either assay format and are not differentiated as to which. […] TR-FRET Assay Time-Resolved Fluorescence Resonance Energy Transfer Kinase Standard Assay Recombinant human p38α was expressed as a His-tagged protein. To activate this protein, 3 μM unactivated p38α was incubated in 200 mM Hepes pH 7.4, 625 mM NaCl, 1 mM DTT with 27 nM active MKK6 (Upstate), 1 mM ATP and 10 mM MgCl2 The activity of the MKK6-activated p38α was assessed using a time-resolved fluorescence resonance energy transfer (TR-FRET) assay. Biotinylated-GST-ATF2 (residues 19-96, 400 nM final), ATP ([…]) and MgCl2 (5 mM final) in assay buffer (40 mM HEPES pH 7.4, 1 mM DTT) were added to wells containing 1 ul of various concentrations of compound or DMSO vehicle (3% final) in NUNC 384 well black plate. The reaction was initiated by the addition of MKK6-activated p38 (100 pM final) to give a total volume of 30 ul. The reaction was incubated for 120 minutes at room temperature, then terminated by the addition of 15 μl of 100 mM EDTA pH 7.4. Detection reagent (15 μl) in buffer (100 mM HEPES pH 7.4, 150 mM NaCl, 0.1% w/v BSA, 1 mM DTT) containing antiphosphothreonine-ATF2-71 polyclonal antibody (Cell Signalling Technology, Beverly Mass., USA) labelled with W-1024 europium chelate (Wallac OY, Turku, Finland), and APC-labelled streptavidin (Prozyme, San Leandro, Calif., USA) was added and the reaction was further incubated for 60 minutes at room temperature. The degree of phosphorylation of GST-ATF2 was measured using a Packard Discovery plate reader (Perkin-Elmer Life Sciences, Pangbourne, UK) as a ratio of specific 665 nm energy transfer signal to reference europium 620 nm signal. Time-Resolved Fluorescence Resonance Energy Transfer Kinase Low Volume Assay Recombinant human p38α was expressed as a His-tagged protein. To activate this protein, 3 μM unactivated p38α was incubated in 200 mM Hepes pH7.4, 625 mM NaCl, 1 mM DTT with 27 nM active MKK6 (Upstate), 1 mM ATP and 10 mM MgCl2 The activity of the MKK6-activated p38α was assessed using a time-resolved fluorescence resonance energy transfer (TR-FRET) assay. Biotinylated-GST-ATF2 (residues 19-96, 400 nM final), ATP (125 μM final) and MgCl2 ([…]) in assay buffer (40 mM HEPES pH 7.4, 1 mM DTT) were added to wells containing 0.1 μl of various concentrations of compound or DMSO vehicle (1.7% final) in Greiner low volume 384 well black plate. The reaction was initiated by the addition of MKK6-activated p38α (100 pM final) to give a total volume of 6 μl. The reaction was incubated for 120 minutes at room temperature, then terminated by the addition of 3 μl of detection reagent in buffer (100 mM HEPES pH 7.4, 150 mM NaCl, 0.1% w/v BSA, 1 mM DTT, 100 mM EDTA) containing antiphosphothreonine-ATF2-71 polyclonal antibody (Cell Signalling Technology, Beverly Mass., USA) labelled with W-1024 europium chelate (Wallac OY, Turku, Finland), and APC-labelled streptavidin (Prozyme, San Leandro, Calif., USA). The reaction was further incubated for 60 minutes at room temperature. The degree of phosphorylation of GST-ATF2 was measured using a BMG Rubystar plate reader (BMG, UK) as a ratio of specific 665 nm energy transfer signal to reference europium 620 nm signal. It is noted that there are two assay formats shown above for the Time-resolved fluorescence resonance energy transfer kinase assay. The only difference between these two assays is the volume used and the plate type. […] The results described herein may have been performed in either assay format and are not differentiated as to which. […] For purposes herein the HTRF assay and the Fluorescence anisotropy kinase binding assay: […]
# T1 sequence (Q16539 whole entry): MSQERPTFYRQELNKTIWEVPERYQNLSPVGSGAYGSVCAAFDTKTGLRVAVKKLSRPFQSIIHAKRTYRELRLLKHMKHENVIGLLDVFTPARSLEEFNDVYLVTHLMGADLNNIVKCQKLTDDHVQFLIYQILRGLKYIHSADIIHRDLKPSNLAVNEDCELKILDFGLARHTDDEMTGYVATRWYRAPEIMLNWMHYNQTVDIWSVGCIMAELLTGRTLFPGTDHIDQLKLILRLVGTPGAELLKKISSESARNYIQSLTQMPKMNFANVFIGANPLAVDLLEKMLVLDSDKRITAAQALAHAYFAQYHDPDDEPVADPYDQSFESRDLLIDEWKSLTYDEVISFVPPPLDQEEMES
SMILES,inhibition of neutrophilia (neutrophil levels in lung lavage relative to no compound controls) [1],melting point,"pIC50, reported as active [2]"
Cc1ccc(C(=O)NC2CC2)cc1-c1nc(NCCN(C)C)nc2c1ccc(=O)n2-c1c(F)cccc1F [Example 25],statistically nonsignificant inhibition,214.7 to 217.5 °C,
"Cc1ccc(C(=O)NC(C)C)cc1-c1nc(NCCN(C)C)nc2c1ccc(=O)n2-c1c(F)cccc1F [Example 117, 3-(8-(2,6-difluorophenyl)-2-{[2-(dimethylamino)ethyl]amino}-7-oxo-7,8-dihydropyrido[2,3-d]pyrimidin-4-yl)-4-methyl-N-(1-methylethyl)benzamide]",statistically significant inhibition,,active
Cc1ccc(C(=O)Nc2ccc(F)cc2)cc1-c1nc(NCc2ncc[nH]2)nc2c1ccc(=O)n2-c1c(F)cccc1F [Example 78],statistically significant inhibition,,active
"CCCNC(=O)c1ccc(C)c(-c2nc(NCCN(C)C(=O)OC(C)(C)C)nc3c2ccc(=O)n3-c2c(F)cccc2F)c1 [Example 106, 1,1-dimethylethyl {2-[(8-(2,6-difluorophenyl)-4-{2-methyl-5-[(propylamino)carbonyl]phenyl}-7-oxo-7,8-dihydro-pyrido[2,3-d]pyrimidin-2-yl)amino]ethyl}methylcarbamate]",,115 to 118 °C,
"CCC(C)NC(=O)c1ccc(C)c(-c2nc(NCCCN(CC)CC)nc3c2ccc(=O)n3-c2c(F)cccc2F)c1 (stereo not drawn) [Example 162, 3-[2-{[3-(diethylamino)propyl]amino}-8-(2,6-difluorophenyl)-7-oxo-7,8-dihydropyrido[2,3-d]pyrimidin-4-yl]-4-methyl-N-(1-methylpropyl)benzamide]",statistically nonsignificant inhibition,,active
"Cc1ccc(C(=O)Nc2nccs2)cc1-c1nc(NCc2ncc[nH]2)nc2c1ccc(=O)n2-c1c(F)cccc1F [79(c), 3-{8-(2,6-difluorophenyl)-2-[(1H-imidazol-2-ylmethyl)amino]-7-oxo-7,8-dihydropyrido[2,3-d]pyrimidin-4-yl}-4-methyl-N-1,3-thiazol-2-ylbenzamide]",statistically significant inhibition,,active
"Cc1ccc(C(=O)Nc2ccc(F)cc2)cc1-c1nc(NCCN(C)C)nc2c1ccc(=O)n2-c1c(F)cccc1F [Example 112, 3-(8-(2,6-difluorophenyl)-2-{[2-(dimethylamino)ethyl]amino}-7-oxo-7,8-dihydropyrido[2,3-d]pyrimidin-4-yl)-N-(4-fluorophenyl)-4-methylbenzamide]",statistically nonsignificant inhibition,,active
"Cc1ccc(C(=O)NCc2ccccc2)cc1-c1nc(NCc2ncc[nH]2)nc2c1ccc(=O)n2-c1c(F)cccc1F [116(c), 3-{8-(2,6-difluorophenyl)-2-[(1H-imidazol-2-ylmethyl)amino]-7-oxo-7,8-dihydropyrido[2,3-d]pyrimidin-4-yl}-4-methyl-N-(phenylmethyl)benzamide]",,185 to 190 °C (dec.),
"CNCCNc1nc(-c2cc(C(=O)NC(C)C)ccc2C)c2ccc(=O)n(-c3c(F)cccc3F)c2n1 [Example 57, 3-(8-(2,6-difluorophenyl)-2-{[2-(methylamino)ethyl]amino}-7-oxo-7,8-dihydropyrido[2,3-d]pyrimidin-4-yl)-4-methyl-N-(1-methylethyl)benzamide]",statistically significant inhibition,,active
Cc1ccc(C(=O)NC2CC2)cc1-c1nc(NC2CC(C)(C)NC(C)(C)C2)nc2c1ccc(=O)n2-c1c(F)cccc1F [21(c)],,326.3 to 327.9 °C,
"CNC1CCN(c2nc(-c3cc(C(=O)NC(C)C)ccc3C)c3ccc(=O)n(-c4c(F)cccc4F)c3n2)CC1 [113(b), 3-{8-(2,6-difluorophenyl)-2-[4-(methylamino)-1-piperidinyl]-7-oxo-7,8-dihydropyrido[2,3-d]pyrimidin-4-yl}-4-methyl-N-(1-methylethyl)benzamide]",statistically nonsignificant inhibition,,active
"Cc1ccc(C(=O)Nc2nccs2)cc1-c1nc(NCCN(C)C)nc2c1ccc(=O)n2-c1c(F)cccc1F [Example 109, 3-(8-(2,6-difluorophenyl)-2-{[2-(dimethylamino)ethyl]amino}-7-oxo-7,8-dihydropyrido[2,3-d]pyrimidin-4-yl)-4-methyl-N-1,3-thiazol-2-ylbenzamide]",statistically significant inhibition,,active
"Cc1ccc(C(=O)Nc2ccc(F)cc2)cc1-c1nc(NC2CC(C)(C)NC(C)(C)C2)nc2c1ccc(=O)n2-c1c(F)cccc1F [Example 66, 3-{8-(2,6-difluorophenyl)-7-oxo-2-[(2,2,6,6-tetramethyl-4-piperidinyl)amino]-7,8-dihydropyrido[2,3-d]pyrimidin-4-yl}-N-(4-fluorophenyl)-4-methylbenzamide]",statistically significant inhibition,,active
"CCCNC(=O)c1ccc(C)c(-c2nc(NCCNC)nc3c2ccc(=O)n3-c2c(F)cccc2F)c1 [56(d), 3-(8-(2,6-difluorophenyl)-2-{[2-(methylamino)ethyl]amino}-7-oxo-7,8-dihydropyrido[2,3-d]pyrimidin-4-yl)-4-methyl-N-propylbenzamide]",statistically significant inhibition,,active
"Cc1ccc(C(=O)NC(C)C)cc1-c1nc(N(C)CCCN(C)C)nc2c1ccc(=O)n2-c1c(F)cccc1F [Example 34, 3-{8-(2,6-difluorophenyl)-2-[[3-(dimethylamino)propyl](methyl)amino]-7-oxo-7,8-dihydropyrido[2,3-d]pyrimidin-4-yl}-4-methyl-N-(1-methylethyl)benzamide]",statistically significant inhibition,,active
